Test results reported in patent US20220212192A1, “Microfluidic Device for High-Throughput Screening of Tumor Cell Adhesion and Motility” (Northeastern University, priority 2019, published 2022).

Test system: 3D NHL spheroids with active immune cells
Experiment: Proteomic analysis of perfusate media from 3D NHL (lymphoma) spheroids on-chip
Type: cell-based
Settings: significantly higher than lenalidomide-treated monocultures or spheroids with inactive immune cells, data not shown

Structure (SMILES): Nc1cccc2c1CN(C1CCC(=O)NC1=O)C2=O (centres unmarked) [lenalidomide]
- secretion of IL8: increased secretion
- secretion of cytolytic granzyme B: increased secretion
